The results in this text go back to patent publication US8653071B2, “α4β2 neuronal nicotinic acetylcholine receptor ligands” (Suven Life Sciences Limited, priority 2009, dated 2014).

In data set [1] the test system is Male Wister rats. Kind of data set: Reversal of formalin induced nociception. The data set is classed as in vivo. Conditions: p.o.; rat. Here is the method:
Reversal of Formalin Induced Nociception
The anti-nociceptive properties of compounds of this invention were evaluated using a model of pain: the Formalin Induced Nociception model. Male Wister rats (230-280 grams) obtained from N. I. N. (National Institute of Nutrition, Hyderabad, India) was used as experimental animals.
Rats were habituated for 20 minutes in the arena before the experiment was started. Duration of licks, bites and flinches were noted from 0-10 minutes and 20-35 minutes after administration of formalin, subplantar into the right hind paw at concentrations of 5% v/v. 50 μL of water for injection was injected into the right hind paw of the rats of the sham group. Compounds of this invention were administered orally prior to formalin administration.

For a further data set, the system named is Male Sprague Dawley rats. As to the kind of experiment: DRL-72s model of animal depression. The data set is classed as in vivo. As to conditions: p.o.; rat. Here is the method: The antidepressant properties of compounds of this invention were evaluated using a model of animal depression: the DRL-72s model. Male Sprague Dawley rats were used as experimental animals. Rats are trained to lever press for a 4″ access to 0.025 ml of water for each correct response during daily 60 minute sessions. All testing takes place on weekdays only. At the beginning of each session, the house light is illuminated and remains lit until the session ends. No other stimuli are presented during testing. After successful lever press training, rats are then required to respond under a DRL-24 second schedule, where only lever presses that are separated by 24 seconds are reinforced. Upon stable responding on a DRL-24 second schedule (5-10 sessions), rats are trained on a DRL-72 second schedule until responding stabilizes at approximately 15% efficiency (approx 25-35 sessions). Specifically, rats receive a reinforcer for each response that is emitted at least 72 seconds after the previous response (IRT). […] Efficiency is recorded as number of reinforced responses÷total number of responses. After stable baseline responding is achieved, defined as responding for 4 consecutive sessions with no more than 10% variability, animals begin drug testing. Animals receive drug no more than 1× per week.

Data set [2] relates to Male Wister rats. Kind of data set: Object recognition task model. The data set is classed as in vivo, rat. As to conditions: 0.1 mg/kg, p.o. How it is done:
Object Recognition Task Model
The cognition-enhancing properties of compounds of this invention were estimated using a model of animal cognition: the object recognition task model.
Male Wister rats (230-280 grams) obtained from N. I. N. (National Institute of Nutrition, Hyderabad, India) was used as experimental animals. Four animals were housed in each cage. […] Also the rats were habituated to individual arenas for 1 hour in the absence of any objects.
One group of 12 rats received vehicle (1 mL/Kg) orally and another set of animals received compound of the formula (I) either orally or i.p., before one hour of the familiar (T1) and choice trial (T2).
The experiment was carried out in a 50×50×50 cm open field made up of acrylic. In the familiarization phase, (T1), the rats were placed individually in the open field for 3 minutes, in which two identical objects (plastic bottles, 12.5 cm height×5.5 cm diameter) covered in yellow masking tape alone (a1 and a2) were positioned in two adjacent corners, 10 cm. from the walls. After 24 hours of the (T1) trial for long-term memory test, the same rats were placed in the same arena as they were placed in T1 trial. Choice phase (T2) rats were allowed to explore the open field for 3 minutes in presence of one familiar object (a3) and one novel object (b) (Amber color glass bottle, 12 cm high and 5 cm in diameter). Familiar objects presented similar textures, colors and sizes. During the T1 and T2 trial, explorations of each object (defined as sniffing, licking, chewing or having moving vibrissae whilst directing the nose towards the object at a distance of less than 1 cm) were recorded separately by stopwatch. Sitting on an object was not regarded as exploratory activity, however, it was rarely observed.
T1 is the total time spent exploring the familiar objects (a1+a2).
T2 is the total time spent exploring the familiar object and novel object (a3+b).
The object recognition test was performed as described by Ennaceur, A., Delacour, J., 1988, A new one-trial test for neurobiological studies of memory in rats—Behavioural data, Behav. Brain Res., 31, 47-59.

The target in data set [3] is Nicotinic Acetylcholine α4β2 Receptor (UniProt P09483+P12390). Kind of data set: Binding assay for human or rat nicotinic acetylcholine α4β2 receptor ([3H]Cytisine displacement). Conditions: [3H]Cytisine 2.5 nM; rat brain frontal cortex or recombinant human receptor in CHO cells (not specified which); read-out: Ki. How it is done: Binding Assay for Human or Rat Nicotinic Acetylcholine α4β2 Receptor
• Receptor source: Rat brain frontal cortex or recombinant human cDNA expressed in CHO cells • Radioligand: [^3H]Cytisine 15-40 Ci/mmole • Final ligand concentration—[2.5 nM] • Non-specific determinant: Epibatidine—[0.1 μM] • Reference compound: Epibatidine • Positive control: Epibatidine Incubation Conditions:
Increasing concentrations of test compounds or standard were incubated with membrane receptors and radioligand in 120 mM NaCl, 2.5 mM KCl, 1 mM CaCl2, 1 mM MgCl2 and 50 mM TRIS-HCl (pH 7.4) for 60 minutes at room temperature. The reaction was terminated by rapid vacuum filtration onto the glass fiber filters. Radioactivity trapped onto the filters was determined and compared to the control values in order to ascertain any interactions of the test compound(s) with either cloned human or rat receptor binding site.
Literature Reference: Bunnelle W. H., Daanen J. F., Ryther K. B., Schrimpf M. R., Dart M. J., Gelain A., Meyer M. D., Frost J. M., Anderson D. J., Buckley M., Curzon P., Cao Y-J., Puttfarcken P., Searle X., Ji J., Putman C. B., Surowy C., Toma L. and Barlocco D. Structure-Activity Studies and Analgesic Efficacy of N-(3-Pyridinyl)-Bridged Bicyclic Diamines, Exceptionally Potent Agonists at Nicotinic Acetylcholine Receptors. J. Med. Chem. 2007, 50, […].

A short description of another data set: in vivo. Conditions: male, Wistar, rat, po, 5 mg/kg.
The nature of data set [4]: Rodent pharmacokinetic study. The data set is classed as in vivo. As to conditions: Wistar, in vivo, Wister rat/Male; for AUC(0-t) / Cmax / Tmax / half-life: 5 mg/kg. Here is the method:
Rodent Pharmacokinetic Study
Three to five animals were housed in each cage. Animals were kept fasted over night and maintained on a 12 hours light/dark cycle. Three rats were dosed NCE orally (15 or 5 mg/kg) and intravenously (5 mg/kg) on day 0 and day 2
At each time point blood was collected by jugular vein. Plasma was stored frozen at −20° C. until analysis. The concentrations of the NCE compound in plasma were determined using LC-MS/MS method. Schedule time points: Pre dose 0.25, 0.5, 1, 1.5, 2, 3, 4, 6, 8, 10, 12 and 24 hours after dosing (n=3).
Pharmacokinetic parameters Cmax, Tmax, AUCt, T1/2 and Bioavailability were calculated by non-compartmental model using software WinNonlin version 5.0.1.

Procedure for in vivo: Rodent Brain Penetration Study
Three animals were housed in each cage. Animals were given water and food ad libitum throughout the experiment, and maintained on a 12 hours light/dark cycle.
NCE compound was dissolved in water and administered orally. At Tmax (0.5, 1.0 and 2.0) animals were sacrificed to collect the plasma and brain tissue and were homogenized. Plasma and Brain was stored frozen at −20° C. until analysis. The concentrations of the NCE compound in plasma and Brain were determined using LC-MS/MS method.
The NCE compounds were quantified in plasma and brain homogenate by validated LC-MS/MS method using solid phase extraction technique. NCE compounds were quantified in the calibration range of 1-500 ng/mL in plasma and brain homogenate. Study samples were analyzed using calibration samples in the batch and quality control samples spread across the batch. Extents of brain-blood ratio were calculated (Cb/Cp).

As usually defined, the Ki is the dissociation constant of the complex between target and ligand, obtained from inhibition or displacement. One may read the bioavailability as the share of a dose that reaches the circulation, judged against a reference dose that is usually intravenous. A high value points to good availability. The AUC(0-t) is exposure summed from dosing to a finite time, without extrapolation to infinity. Read a high AUC(0-t) as more exposure. By Cmax is commonly meant the peak of the concentration-time curve. The term Tmax denotes the time from dosing to the highest level. The half-life is how long it takes for the measured level to halve. A lower half-life goes with rapid decline. For the molecule `NCC1CC2CC2N1c1cncc(Cl)c1.O=C(O)/C=C/C(=O)O` (stereo not shown) [Example 13, [2-(5-Chloropyridin-3-yl)-2-aza-bicyclo[3.1.0]hex-3-yl]methylamine fumarate], the “Dose (reversal of formalin induced nociception)” value in the data set with Male Wister rats [1] is “≧30 mg/kg, p.o”. Also, the “Dose (DRL-72s)” value in the data set with Male Sprague Dawley rats is on record as “≧10 mg/kg, p.o”. In addition, in the data set on Male Wister rats [2], the Inference result is given as “Active”. In addition, in the data set with Male Wister rats [2] (choice trial), the “Exploration time mean ± S.E.M, Familiar object” value was 7.32 ± 1.04 s and the “Exploration time mean ± S.E.M, Novel object” value is 22.77 ± 2.12 s. The Ki in data set [3] came out at 3.5 nM. In “in vivo”, this molecule returned a Kp of 10.8 ± 1.29. For the same molecule, the bioavailability in data set [4] (5 mg/kg Per-Oral vs 5 mg/kg Intravenous) is 89 ± 18%. Besides, in data set [4] (Intravenous), the AUC(0-t) was 1760 ± 228 ng·h/mL, the maximum concentration (Cmax) is 836 ± 239 ng/mL, the time to peak (Tmax) stood at 4.8 min and the half-life was 85.8 ± 6.6 min. Moreover, in data set [4] (Per-Oral), the AUC(0-t) worked out at 1540 ± 165 ng·h/mL, the Cmax came to 753 ± 277 ng/mL, the Tmax is 22.8 ± 8.4 min and the half-life was 105 ± 24 min.
